Legend:
Assay type in all cases: cell-based
[1] = tested on: Sc. pneumoniae; assay: Quantitative germ count (re-isolation, surface method) after inoculating the test preparation; details: Ausgangskeimzahl 3,7 x 10^5 KBE/ml
How it was run: (§1)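 Test preparations (5 ml) inoculated with ca. 10^5 CFU/ml of each strain, one tube per time point. After 2, 6, 8, 24, 32, 48 and 72 h, cells pelleted, washed and resuspended in NaCl-peptone buffer, then spiral-plated on Caso agar and incubated at 33±2 °C up to 4 days. Detection limit 100 CFU/ml.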

[2] = tested on: H.influenzae; assay: as above; details: Ausgangskeimzahl 2,8 x 10^5 KBE/ml
How it was run: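 Surviving germs were counted by the surface method: an aliquot was spiral-plated on Kochblut-Agar and incubated at 33±2°C for max. 4 Tage, giving re-isolated counts in KBE/ml with a detection limit of 100 KBE/ml. Initial germ counts were also set by spiral-plater surface plating. The H. influenzae strain was pretested biochemically for identity and purity.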

[3] = tested on: E.coli; assay: as above; details: Ausgangskeimzahl 2,7 x 10^5 KBE/ml
[4] = tested on: S.epidermidis; assay: as above; details: Ausgangskeimzahl 2,1 x 10^5 KBE/ml
How it was run: as §1

[5] = tested on: P.aeruginosa; assay: as above; details: Ausgangskeimzahl 2,7 x 10^5 KBE/ml
How it was run: as §1

[6] = tested on: Sc. pneumoniae; assay: Qualitative examination: enrichment of the inoculated test preparation in broth
How it was run: (§2)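 Test preparations (5 ml) inoculated with ~10^5 CFU/ml; after 2, 6, 8, 24, 32, 48 and 72 h, centrifuged, washed and resuspended in NaCl-peptone buffer. 2 ml enriched in 20 ml Caso broth (Fildes medium for H. influenzae), incubated up to 4 days at 33±2°C; negative enrichment indicates elimination of inoculum.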

[7] = tested on: S.aureus; assay: as above
How it was run: as §2

[8] = tested on: S.epidermidis; assay: as above
How it was run: as §2

[9] = tested on: E.coli; assay: as above
How it was run: as §2

[10] = tested on: H.influenzae; assay: as above
How it was run: as §2

[11] = tested on: P.aeruginosa; assay: as above
How it was run: as §2

Benzalkoniumchlorid [Benzalkoniumchlorid 0,006 Gew.-%]
Ergebnis der Reisolierung (in KBE/ml) ([1]; 2 h after inoculation): <100 KBE/ml | Ergebnis der Reisolierung (in KBE/ml) ([1]; 4 h after inoculation): <100 KBE/ml | Ergebnis der Reisolierung (in KBE/ml) ([1]; 6 h after inoculation): <100 KBE/ml | Ergebnis der Reisolierung (in KBE/ml) ([1]; 8 h after inoculation): <100 KBE/ml | Ergebnis der Reisolierung (in KBE/ml) ([1]; 24 h after inoculation): <100 KBE/ml | Ergebnis der Reisolierung (in KBE/ml) ([1]; 32 h after inoculation): <100 KBE/ml | Ergebnis der Reisolierung (in KBE/ml) ([1]; 48 h after inoculation): <100 KBE/ml | Ergebnis der Reisolierung (in KBE/ml) ([1]; 72 h after inoculation): <100 KBE/ml | Ergebnis der Reisolierung (in KBE/ml) ([2]; 2 h after inoculation): <100 KBE/ml | Ergebnis der Reisolierung (in KBE/ml) ([2]; 4 h after inoculation): <100 KBE/ml | Ergebnis der Reisolierung (in KBE/ml) ([2]; 6 h after inoculation): <100 KBE/ml | Ergebnis der Reisolierung (in KBE/ml) ([2]; 8 h after inoculation): <100 KBE/ml | Ergebnis der Reisolierung (in KBE/ml) ([2]; 24 h after inoculation): <100 KBE/ml | Ergebnis der Reisolierung (in KBE/ml) ([2]; 32 h after inoculation): <100 KBE/ml | Ergebnis der Reisolierung (in KBE/ml) ([2]; 48 h after inoculation): <100 KBE/ml | Ergebnis der Reisolierung (in KBE/ml) ([2]; 72 h after inoculation): <100 KBE/ml | Ergebnis der Reisolierung (in KBE/ml) ([3]; 2 h after inoculation): <100 KBE/ml | Ergebnis der Reisolierung (in KBE/ml) ([3]; 4 h after inoculation): <100 KBE/ml | Ergebnis der Reisolierung (in KBE/ml) ([3]; 6 h after inoculation): <100 KBE/ml | Ergebnis der Reisolierung (in KBE/ml) ([3]; 8 h after inoculation): <100 KBE/ml | Ergebnis der Reisolierung (in KBE/ml) ([3]; 24 h after inoculation): <100 KBE/ml | Ergebnis der Reisolierung (in KBE/ml) ([3]; 32 h after inoculation): <100 KBE/ml | Ergebnis der Reisolierung (in KBE/ml) ([3]; 48 h after inoculation): <100 KBE/ml | Ergebnis der Reisolierung (in KBE/ml) ([3]; 72 h after inoculation): <100 KBE/ml | Ergebnis der Reisolierung (in KBE/ml) ([4]; 2 h after inoculation): <100 KBE/ml | Ergebnis der Reisolierung (in KBE/ml) ([4]; 4 h after inoculation): <100 KBE/ml | Ergebnis der Reisolierung (in KBE/ml) ([4]; 6 h after inoculation): <100 KBE/ml | Ergebnis der Reisolierung (in KBE/ml) ([4]; 8 h after inoculation): <100 KBE/ml | Ergebnis der Reisolierung (in KBE/ml) ([4]; 24 h after inoculation): <100 KBE/ml | Ergebnis der Reisolierung (in KBE/ml) ([4]; 32 h after inoculation): <100 KBE/ml | Ergebnis der Reisolierung (in KBE/ml) ([4]; 48 h after inoculation): <100 KBE/ml | Ergebnis der Reisolierung (in KBE/ml) ([4]; 72 h after inoculation): <100 KBE/ml | Ergebnis der Reisolierung (in KBE/ml) ([5]; 2 h after inoculation): <100 KBE/ml | Ergebnis der Reisolierung (in KBE/ml) ([5]; 4 h after inoculation): <100 KBE/ml | Ergebnis der Reisolierung (in KBE/ml) ([5]; 6 h after inoculation): <100 KBE/ml | Ergebnis der Reisolierung (in KBE/ml) ([5]; 8 h after inoculation): <100 KBE/ml | Ergebnis der Reisolierung (in KBE/ml) ([5]; 24 h after inoculation): <100 KBE/ml | Ergebnis der Reisolierung (in KBE/ml) ([5]; 32 h after inoculation): <100 KBE/ml | Ergebnis der Reisolierung (in KBE/ml) ([5]; 48 h after inoculation): <100 KBE/ml | Ergebnis der Reisolierung (in KBE/ml) ([5]; 72 h after inoculation): <100 KBE/ml | Ergebnis der Reisolierung qualitiativ (+/-) nach Anreicherung ([6]; 2 h after inoculation): - | Ergebnis der Reisolierung qualitiativ (+/-) nach Anreicherung ([6]; 4 h after inoculation): - | Ergebnis der Reisolierung qualitiativ (+/-) nach Anreicherung ([6]; 6 h after inoculation): - | Ergebnis der Reisolierung qualitiativ (+/-) nach Anreicherung ([6]; 8 h after inoculation): - | Ergebnis der Reisolierung qualitiativ (+/-) nach Anreicherung ([6]; 24 h after inoculation): - | Ergebnis der Reisolierung qualitiativ (+/-) nach Anreicherung ([6]; 32 h after inoculation): - | Ergebnis der Reisolierung qualitiativ (+/-) nach Anreicherung ([6]; 48 h after inoculation): - | Ergebnis der Reisolierung qualitiativ (+/-) nach Anreicherung ([6]; 72 h after inoculation): - | Ergebnis der Reisolierung qualitiativ (+/-) nach Anreicherung ([7]; 2 h after inoculation): - | Ergebnis der Reisolierung qualitiativ (+/-) nach Anreicherung ([7]; 4 h after inoculation): - | Ergebnis der Reisolierung qualitiativ (+/-) nach Anreicherung ([7]; 6 h after inoculation): - | Ergebnis der Reisolierung qualitiativ (+/-) nach Anreicherung ([7]; 8 h after inoculation): - | Ergebnis der Reisolierung qualitiativ (+/-) nach Anreicherung ([7]; 24 h after inoculation): - | Ergebnis der Reisolierung qualitiativ (+/-) nach Anreicherung ([7]; 32 h after inoculation): - | Ergebnis der Reisolierung qualitiativ (+/-) nach Anreicherung ([7]; 48 h after inoculation): - | Ergebnis der Reisolierung qualitiativ (+/-) nach Anreicherung ([7]; 72 h after inoculation): - | Ergebnis der Reisolierung qualitiativ (+/-) nach Anreicherung ([8]; 2 h after inoculation): - | Ergebnis der Reisolierung qualitiativ (+/-) nach Anreicherung ([8]; 4 h after inoculation): - | Ergebnis der Reisolierung qualitiativ (+/-) nach Anreicherung ([8]; 6 h after inoculation): - | Ergebnis der Reisolierung qualitiativ (+/-) nach Anreicherung ([8]; 8 h after inoculation): - | Ergebnis der Reisolierung qualitiativ (+/-) nach Anreicherung ([8]; 24 h after inoculation): - | Ergebnis der Reisolierung qualitiativ (+/-) nach Anreicherung ([8]; 32 h after inoculation): - | Ergebnis der Reisolierung qualitiativ (+/-) nach Anreicherung ([8]; 48 h after inoculation): - | Ergebnis der Reisolierung qualitiativ (+/-) nach Anreicherung ([8]; 72 h after inoculation): - | Ergebnis der Reisolierung qualitiativ (+/-) nach Anreicherung ([9]; 2 h after inoculation): - | Ergebnis der Reisolierung qualitiativ (+/-) nach Anreicherung ([9]; 4 h after inoculation): - | Ergebnis der Reisolierung qualitiativ (+/-) nach Anreicherung ([9]; 6 h after inoculation): - | Ergebnis der Reisolierung qualitiativ (+/-) nach Anreicherung ([9]; 8 h after inoculation): - | Ergebnis der Reisolierung qualitiativ (+/-) nach Anreicherung ([9]; 24 h after inoculation): - | Ergebnis der Reisolierung qualitiativ (+/-) nach Anreicherung ([9]; 32 h after inoculation): - | Ergebnis der Reisolierung qualitiativ (+/-) nach Anreicherung ([9]; 48 h after inoculation): - | Ergebnis der Reisolierung qualitiativ (+/-) nach Anreicherung ([9]; 72 h after inoculation): - | Ergebnis der Reisolierung qualitiativ (+/-) nach Anreicherung ([10]; 2 h after inoculation): - | Ergebnis der Reisolierung qualitiativ (+/-) nach Anreicherung ([10]; 4 h after inoculation): - | Ergebnis der Reisolierung qualitiativ (+/-) nach Anreicherung ([10]; 6 h after inoculation): - | Ergebnis der Reisolierung qualitiativ (+/-) nach Anreicherung ([10]; 8 h after inoculation): - | Ergebnis der Reisolierung qualitiativ (+/-) nach Anreicherung ([10]; 24 h after inoculation): - | Ergebnis der Reisolierung qualitiativ (+/-) nach Anreicherung ([10]; 32 h after inoculation): - | Ergebnis der Reisolierung qualitiativ (+/-) nach Anreicherung ([10]; 48 h after inoculation): - | Ergebnis der Reisolierung qualitiativ (+/-) nach Anreicherung ([10]; 72 h after inoculation): - | Ergebnis der Reisolierung qualitiativ (+/-) nach Anreicherung ([11]; 2 h after inoculation): - | Ergebnis der Reisolierung qualitiativ (+/-) nach Anreicherung ([11]; 4 h after inoculation): - | Ergebnis der Reisolierung qualitiativ (+/-) nach Anreicherung ([11]; 6 h after inoculation): - | Ergebnis der Reisolierung qualitiativ (+/-) nach Anreicherung ([11]; 8 h after inoculation): - | Ergebnis der Reisolierung qualitiativ (+/-) nach Anreicherung ([11]; 24 h after inoculation): - | Ergebnis der Reisolierung qualitiativ (+/-) nach Anreicherung ([11]; 32 h after inoculation): - | Ergebnis der Reisolierung qualitiativ (+/-) nach Anreicherung ([11]; 48 h after inoculation): - | Ergebnis der Reisolierung qualitiativ (+/-) nach Anreicherung ([11]; 72 h after inoculation): -
